According to PubChem BioAssay (NCI):
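Test compounds were applied to cells in 96-well plates for 48 hours at 5 doses. GI50 marks 50% less growth. TGI denotes the concentration required for complete inhibition of growth.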

Tests used:
Experiment in all cases: NCI-60 cell line screen, 48 h
[1] = tested on: HCT-116 colon
[2] = tested on: CCRF-CEM leukemia
[3] = tested on: HOP-92 NSCLC
[4] = tested on: SK-MEL-28 melanoma
[5] = tested on: CAKI-1 renal
[6] = tested on: EKVX NSCLC
[7] = tested on: A549 NSCLC
[8] = tested on: HCT-15 colon
[9] = tested on: LOX IMVI melanoma
[10] = tested on: KM20L2 colon

| SMILES | TGI [1] | TGI [2] | TGI [3] | TGI [4] | TGI [5] | TGI [6] | TGI [7] | TGI [8] | TGI [9] | TGI [10] | GI50 [1] | GI50 [2] | GI50 [3] | GI50 [4] | GI50 [5] | GI50 [6] | GI50 [7] | GI50 [8] | GI50 [9] |
| --- | --- | --- | --- | --- | --- | --- | --- | --- | --- | --- | --- | --- | --- | --- | --- | --- | --- | --- | --- |
| O=C(O)C1C2C=CC(O2)C1C(=O)NCc1cccnc1 (stereo not given) | > 100 µM | > 100 µM | > 100 µM | > 100 µM | > 100 µM | > 100 µM | > 100 µM | > 100 µM | > 100 µM | – | – | – | – | – | – | – | – | – | – |
| COC(=O)C(C(=O)C(=O)Nc1ccc(C)cc1)c1nc2ccc([N+](=O)[O-])cc2[nH]c1=O (stereo not given) | > 100 µM | > 100 µM | – | > 100 µM | > 100 µM | > 100 µM | > 100 µM | > 100 µM | > 100 µM | > 100 µM | – | – | – | – | – | – | – | – | – |
| Cc1nnc(C[C@@H]2C=C(c3ccc(Cl)cc3)c3ccccc3-n3c(C)nnc32)o1 | 31.9 µM | > 94.1 µM | > 75.1 µM | > 100 µM | 93.7 µM | > 100 µM | > 82.2 µM | 40.2 µM | 16 µM | – | 0.472 µM | 8.6 µM | 1.96 µM | 2.24 µM | 0.133 µM | 6.01 µM | 2.61 µM | 0.461 µM | 0.4 µM |
| CC/C=C\C[C@H]1C/C=C2/C(=O)C=C[C@H]2C/C=C\CCCC(=O)O1 | 2.55 µM | 15.3 µM | 10.1 µM | 11.4 µM | 8.23 µM | 15.7 µM | 10.3 µM | 7.04 µM | 6.7 µM | – | 1 µM | 1.67 µM | 2.53 µM | 3.1 µM | 2.29 µM | 4.89 µM | 2.66 µM | 1.5 µM | 1.68 µM |
| COc1ccc(C(c2ccccc2C(=O)O)c2ccc(OC)c3ccccc23)c2ccccc12 | – | > 100 µM | 50.8 µM | – | 63.4 µM | 49.8 µM | 31 µM | 28.8 µM | 50.6 µM | 26.5 µM | – | – | – | – | – | – | – | – | – |
| COc1ccccc1-n1cnc(N)c1C(=O)c1cc(OC)c(OC)c(OC)c1 | > 100 µM | > 100 µM | > 100 µM | > 100 µM | > 100 µM | > 100 µM | > 100 µM | > 100 µM | > 100 µM | – | 4.95 µM | 2.69 µM | 43.8 µM | 9.62 µM | 3.12 µM | 7.55 µM | 4.42 µM | 3.36 µM | 6.39 µM |
| CCCCCCCCCCC(=O)CCCCCCC(=O)O | 26.7 µM | 73.8 µM | 35.8 µM | > 100 µM | 81.5 µM | > 100 µM | 32.2 µM | 28 µM | 31.4 µM | – | – | – | – | – | – | – | – | – | – |
| CCOC(=O)C1(CC(=O)O)CCCC1=O (stereo not given) | > 100 µM | > 100 µM | > 100 µM | > 100 µM | > 100 µM | > 100 µM | > 100 µM | > 100 µM | > 100 µM | – | – | – | – | – | – | – | – | – | – |
| COc1ccc2[nH]c(Cl)c(/C=C3/C(=O)Nc4ccccc43)c2c1 | 1.17 µM | 0.737 µM | 4.09 µM | 5.47 µM | 1.75 µM | 3.96 µM | 5.36 µM | 3.36 µM | 11.3 µM | – | 0.238 µM | 0.216 µM | 1.99 µM | 0.459 µM | 0.673 µM | 2.07 µM | 1.2 µM | 0.611 µM | 0.345 µM |
| C/C(=N\Nc1ccccc1)c1sc(-c2nc(C)c(/C(C)=N/Nc3ccccc3)s2)nc1C | > 100 µM | > 100 µM | > 57.6 µM | > 85.8 µM | > 89.4 µM | > 100 µM | > 35.8 µM | > 20.2 µM | > 100 µM | – | – | – | – | – | – | – | – | – | – |
| NC(N)=NN=c1c(=O)c2ccccc2c1=O | 4.18 µM | 5.27 µM | 34.9 µM | 3.88 µM | 41.2 µM | 34.8 µM | 30.5 µM | 3.84 µM | 3.25 µM | – | 2.01 µM | 2.14 µM | 19.3 µM | 2 µM | 18.9 µM | 18.7 µM | 12.4 µM | 1.88 µM | 1.58 µM |
| O=C(COc1ccc(/C=C2\Oc3ccc4ccccc4c3C2=O)cc1)c1ccc([N+](=O)[O-])cc1 | 13.8 µM | 4.12 µM | 69.6 µM | 40.2 µM | 35.4 µM | > 100 µM | > 100 µM | 20.4 µM | 10.8 µM | – | 3.03 µM | 1.81 µM | 19.8 µM | 19.4 µM | 18.8 µM | 47.6 µM | 45 µM | 7.6 µM | 2.88 µM |
| O=C1NC(=O)C(C(=O)C(=O)Nc2cc(Cl)ccc2Cl)C(=O)N1 | > 100 µM | > 100 µM | > 100 µM | > 100 µM | – | > 100 µM | > 100 µM | > 100 µM | – | > 100 µM | – | – | – | – | – | – | – | – | – |
| O/N=C1/CCCC/C1=C/C=C/c1ccccc1 | 29.7 µM | 67 µM | 36.7 µM | 10.2 µM | > 100 µM | – | 54.9 µM | 36.2 µM | 31.3 µM | 33.3 µM | – | – | – | – | – | – | – | – | – |
| C/C=C1/CN2CCC34C(=C(C(=O)OC)C1CC23)Nc1ccc(O)cc14 (stereo not given) | > 100 µM | > 100 µM | > 100 µM | > 100 µM | > 100 µM | > 100 µM | > 100 µM | > 100 µM | > 100 µM | – | – | – | – | – | – | – | – | – | – |
| CN(C)c1ccc(C(=S)c2ccc(N(C)C)cc2)cc1 | > 100 µM | > 100 µM | 86.8 µM | > 100 µM | > 100 µM | > 100 µM | > 100 µM | > 100 µM | 88.6 µM | – | 3.71 µM | 6.64 µM | 9.01 µM | 7.59 µM | 6.15 µM | 16.5 µM | 7.81 µM | 4.27 µM | 5.86 µM |
